Patent publication US9868773B2, “Peptide for treatment of type 2 diabetes mellitus and its complications” (DAPHOT ENTERPRISES LIMITED, priority 2014, dated 2018)
Entries after “also recorded” stand apart in the source; their conditions may differ. Marks after values point to notes of the source that are not given here.

Legend:
[1] = test system: rats with alcohol neuropathy; conditions: D-peptide 10 ppb, 100th day of daily injection; vs control group, p<0.05; 30% alcohol forced drinking
Experimental: Tactile allodynia was assessed prior to modeling of alcohol neuropathy on the 1st day of product injection, and on the 50th and 100th day of daily injection. Data are given as a mean threshold value of paw withdrawal (g) (M±m).
The allodynia test was performed on the 60th, 70th and 80th days of injection of medicinal products during experiment. In case of alcohol neuropathy, the tactile responsiveness test was performed on the 1st, 50th and 100th day of injection of medicinal products.
Assessment of tactile allodynia was performed in the same way as in the example 7.

gastrocnemius muscle = experiment: Condition assessment of muscle tissue (gastrocnemius muscle) of diabetic rats; format: in vivo, rat; conditions: for Cross section area of fibers, μm^2: gastrocnemius muscle, M ± m, after 80-day injection, intact 1,450, control 551.1; for pathomorphological condition of gastrocnemius muscle tissue: histology after 80-day injection
Description: (§1) Nuclei were counterstained with hemalum.
(§2) 4.8. and image editor PhotoM 1.21.

[2] = test system: chemical experimental diabetes induced by a single injection of Streptozocin (STZ) and nicotinamide to male rats; experiment: Determination of glucose in peripheral blood of rats with STZ/nicotinamide-induced experimental diabetes; format: in vivo, rat; conditions: fasted STZ/nicotinamide rats; daily for 80 days; Byetta and exenatide 4.5 ppb, D-peptide 6.0 ppb subcutaneously, Metformin 85.7 ppm intragastrically; vs control group
Experimental: (§3) In accordance with the experiment schedule, animals underwent induction of experimental diabetes mellitus using single injection of Streptozotocin (STZ) abdominally in the dose of 65 ppm previously diluted in citrate buffer (pH=6.5) on the day 0. All animals were injected abdominally with nicotinomide in the dose of 230 ppm (5% solution) 2 hours before it.
Glucose level measurement in peripheral blood of rats was conducted using the glucose meter OneTouch® and dipsticks OneTouch® by the glucose oxidase test. Rats were deprived of feed, but not water for a night before glucose level measurement. The measurement process was as follows: an animal with a required mark was removed from the cage, its tail was treated with bactericidal agent, a vein was punctured using a syringe needle, and the glucose meter with a dipstick was brought in place when a blood drop was effused. Obtained data was entered into the initial card.

[3] = test system: mesenteric artery intima of rats; conditions: after 80-day injection; vs control group (FIG. 3)
Description: as §1, §2

[4] = test system: chemical experimental diabetes induced by a single injection of Streptozocin (STZ) and nicotinamide to male rats; experiment: Determination of glycosylated hemoglobin (HbA1c) in blood of diabetic rats; format: in vivo, rat; conditions: for Glycosylated hemoglobin, %: M ± m, 81st day of daily injection, Byetta and exenatide 4.5 ppb, D-peptide 6.0 ppb s.c., Metformin 85.7 ppm i.g., intact 4.2, control 15.6; for reduction of HbA1c concentration, therapy effect in intergroup comparison: vs control group, after 80-day therapy
Experimental: as §3
A sample of venous blood was taken to determine the glycosylated hemoglobin level of animals on the day of euthanasia. The following organs were also taken for pathomorphological study: sciatic nerve, part of mesentery artery, part of retina artery, part of gastrocnemius muscle and pancreatic gland.
Determination of glycosylated hemoglobin in venous blood was conducted using the kit of reagents “Diabetes Test, HbA1c” (“Phosphosorb” LLC, Russia) by the method of affinity chromatography of glycosylated and non-glycosylated hemoglobin fractions in rat blood hemolysate.
Blood samples for determination of glycosylated hemoglobin in hemolysate of animal red blood cells were taken from the tail vein of experimental animals on the 81st day of daily injection of test products.

sciatic nerve tissue = experiment: Condition assessment of sciatic nerve tissue of diabetic rats (histology, morphometry); format: in vivo, rat; conditions: for pathomorphological condition of sciatic nerve tissue: histology after 80-day injection; for Nerve stem thickness, μm / Endoneurium connective tissue area, μm^2: sciatic nerve after 80-day injection; for Nerve stem thickness, μm: intact 340.5, control 203.3; for Endoneurium connective tissue area, μm^2: intact 2,596.3, control 3,962.5
Description: as §1, §2

[5] = test system: rats with diabetic neuropathy; experiment: Assessment of tactile allodynia (von Frey hairs) on rats with diabetic neuropathy; format: in vivo, rat; conditions: for effect on tactile allodynia manifestation in diabetic neuropathy: 60th-80th day of injection, vs control group; for mean value of paw withdrawal threshold, 60th day of products injection: Byetta and exenatide 4.5 ppb, D-peptide 6.0 ppb s.c., Metformin 85.7 ppm i.g. daily, control 2.77, intact 27.74; for mean value of paw withdrawal threshold, 70th day of products injection / mean value of paw withdrawal threshold, 80th day of products injection: same doses; for mean value of paw withdrawal threshold, 70th day of products injection: control 3.10, intact 26.94; for mean value of paw withdrawal threshold, 80th day of products injection: control 3.46, intact 27.74
Experimental: as §3
A rat was put into a plastic cage with a grating floor made of metal wire and left in this cage for 5 minutes to extinguish orientation response.
Threshold of each rat was initially determined on the left paw, and then on the right paw. A hair end touched the middle of the plantar surface on the paw with the force required for hair bending, and it was left in this position for 6-8 seconds. Positive response was recorded if the animal withdrew its paw abruptly during touching, or removal of a hair was followed by sharp paw bending.
Testing was started from application of a hair corresponding to the force of 3.630 g. Then stimuli (hairs) were used in the increasing and decreasing sequence. The hair with the least coarseness was used in case of positive response, while the hair with the largest coarseness was used in case of negative response. 4 more hairs were used according to the same principle after initial determination of sensitivity threshold.
Psychophysiological mean effective threshold of tactile responsiveness was calculated by the method described by Dixon.

[6] = test system: pancreatic gland insular apparatus; experiment: Pancreatic gland insular apparatus of diabetic rats (islet area morphometry); format: in vivo, rat; conditions: after 80-day injection; intact 0.066, control 0.012
Experimental: as §1, §2
1. pancreatic gland insular apparatus where measurement of islets area was performed;

Compound	effect on tactile allodynia in alcohol neuropathy [1]	Cross section area of fibers, μm^2 (gastrocnemius muscle)	pathomorphological condition of gastrocnemius muscle tissue (gastrocnemius muscle)	antihyperglycemic effect (glucose level in peripheral blood) [2]	mesenteric artery intima thickness, effect [3]	Glycosylated hemoglobin, % [4] [%]	reduction of HbA1c concentration, therapy effect in intergroup comparison [4]	pathomorphological condition of sciatic nerve tissue (sciatic nerve tissue)	Nerve stem thickness, μm (sciatic nerve tissue) [μm]	Endoneurium connective tissue area, μm^2 (sciatic nerve tissue)	effect on tactile allodynia manifestation in diabetic neuropathy [5]	mean value of paw withdrawal threshold, 60th day of products injection ([5]; M ± m) [g]	mean value of paw withdrawal threshold, 70th day of products injection ([5]; M ± m) [g]	mean value of paw withdrawal threshold, 80th day of products injection ([5]; M ± m) [g]	Area of pancreatic gland islets, mm² [6] [mm²]	mean value of paw withdrawal threshold, Baseline ([5]; M ± m, baseline, prior to injection of test products) [g]
14-glycine-exendin-4 (Heloderma suspectum)-(1-39)-peptidyl-octa-D-arginyl-glycine [D-peptide]	decrease in tactile allodynia intensity	1,472 ± 282* μm^2	had apparent therapeutic action on muscle tissue	had antihyperglycemic effect during therapy with duration of 80 days starting from the 40th day of injection	Maximum effect	5.5 ± 0.53	maximum therapy effect	had a positive therapeutic effect	303.6 ± 20.3	1,956.1 ± 273.4** μm^2	decreased tactile allodynia manifestations significantly	16.15 ± 4.18	13.91 ± 3.59	15.05 ± 3.67		
CN(C)C(=N)N=C(N)N [Metformin]		1,286 ± 157* μm^2	Minimum focal inflammatory infiltration of fibers and interstitial tissue	showed antihyperglycemic properties starting from the 20th day of therapy		5.7 ± 0.25	maximum therapy effect	did not have a therapeutic effect on nerve tissue; also recorded: nerve stem edema and excess increase of its thickness	382 ± 23.4	2,826.3 ± 298.9* μm^2	decreased allodynia manifestation intensity slightly	4.94 ± 0.90	4.98 ± 0.87	4.28 ± 0.45	0.034 ± 0.004	28.82 ± 0.00
